Here are results for 129 compounds from the OPERA property sets (Mansouri et al. 2018).

Residues, ends and D or L forms follow the SMILES beside them. *: point of attachment. Cbz = O=C(OCc1ccccc1)*

For orientation: logP means the decadic logarithm of the partition coefficient of the neutral form, usually between octanol and water. Consider `CC1CCC(C)N1N=O` (centres undefined), for which the logP amounted to 0.86. In the case of `C[N+](C)(C)Cc1cccc([N+](=O)[O-])c1.[Br-]`, the log partition coefficient (logP) is -2.66. The value for `O=NN(CCCl)C(=O)NC1CCCCC1O` (centres undefined) was 1.75; that for `O=C1CCCN1CCOc1ccc([N+](=O)[O-])cc1` was 1.33; that for `CNc1cc(Cc2cnc(N)nc2N)cc(N(C)C)c1OC` was 1.56. In the case of `CN(C)CCc1cccs1` it was 1.99; in that of `CCCC(=O)N(C)SN(C)C(=O)Oc1cccc2c1OC(C)(C)C2`, 3.8.

For `CN(C)N=Nc1ccc(NC(N)=O)cc1`, the logP was determined as 1.25. The value for `CN(C)C(=O)Oc1ccc([N+](=O)[O-])cc1` was 1.5; that for `Cc1cccc2c1ncc[n+]2[O-]` was 1.2. In the case of `CC(=O)c1ccccc1NCCO` it was 1.59; in that of `FC(F)(F)c1nc2c(Cl)cc(Cl)cc2[nH]1`, 3.49. `CCOP(=O)(OCC)Oc1ccc(SC)c(C)c1` returned a logP of 3.28.

The compound `NNC(=O)NC1CCCCC1` gave a logP of 0.15. The value for `CC(=O)C(C#N)=NNc1ccc2c(c1)OC(F)(F)C(F)(F)O2` was 5.31. In the case of `COC1(C(F)(F)F)C(Cl)C(Cl)C(Cl)C(Cl)C1Cl` (centres undefined) it was 4.06. In the case of `CSc1nnc(C2CCCCC2)c(=O)n1N` it was 2.14.

`CCCCN(SN(C)C(=O)Oc1cccc2c1OC(C)(C)C2)C(=O)OC` had a logP of 4.6. The value for `CS(=O)(=O)Oc1ccccc1Cc1cnc(N)nc1N` was 0.71; that for `O=C(O)C1c2ccccc2Cc2ccccc21` was 2.78; that for `Cc1[nH]c(=O)n(O)c(=O)c1Br` was -1.12. In the case of `O=C(Nc1ccccc1)NC(CO)(CO)CO` it was 0.43. Consider `CCCCCC[n+]1ccc(C)c(C)c1.[I-]`, for which the log partition coefficient (logP) is -1.51. The value for `OCCCCCn1nnc2ccccc21` was 1.51; that for `COc1cc(-n2nc(C)cc2OC)nc(OC)n1` was 1.86; that for `CN(C)c1ncnc2sccc12` was 1.82. Compound `CCCCCCN(SN(C)C(=O)ON=C(C)SC)C(=O)N(C)C` gave a logP of 3.3.

Turning to `COc1ccc(OC)c(NC2=NCCN2)c1`, the logP was 0.97. The value for `CN(C)C1=NC(=O)C(=Cc2ccc([N+](=O)[O-])o2)S1` was 1.14; that for `O=NN(CCF)C(=O)NC1CCC(NC(=O)N(CCF)N=O)CC1` (centres undefined) was 1.34; that for `O=C1OC(Cc2ccccc2)c2ccccc21` (centres undefined) was 3.12. In the case of `NC(=S)c1ncccn1` it was -0.34; in that of `NC(=O)Nc1cnc2ccccc2n1`, 1.3; in that of `S=C=NC(c1ccccc1)c1cccc2ccccc12` (centres undefined), 6.44. The value for `CN(C)S(=O)(=O)c1ccccc1` was 1.35; that for `CCCC1=Nc2cc(Cl)ccc2S(=O)(=O)N1` was 2.04. The compound `CNC1C2CCC1c1ccccc12` (centres undefined) yielded a log partition coefficient (logP) of 2.37. The value for `O=C(COc1ccc(Cl)cc1)NNCc1ccccc1` was 2.92.

On to `CC1C(C)N(N=O)C(C)C(C)N1N=O` (centres undefined), for which the logP was found to be 0.91. The value for `CCc1ccc(O[Si]23OCCN(CCO2)CCO3)cc1` was 0.56; that for `COc1nnc(C(C)C)c(=O)n1N` was -0.06; that for `COc1cc(Cc2cnc(N)nc2N)c(Br)cc1Br` was 3.17. On to `CCCCCCCCCCCCCCCCCC[n+]1ccccc1.[I-]`, for which the logP came out at 3.68. The value for `O=c1c2ccccc2ncn1O` was -0.45; that for `Cc1ccnc2c(O)ccc(C)c12` was 2.71. In the case of `CCCCN(SN(C)C(=O)ON=C(C)SC)C(=O)OC` it was 2.5; in that of `CCOC(=O)CN(C(=O)CCl)c1ccccc1OC`, 1.78. `c1ccc(Sc2nnc[nH]2)cc1` displayed a log partition coefficient (logP) of 1.45.

Turning to `Cn1nnnc1Sc1ccccc1`, the logP came out at 1.63. In the case of `O=[N+]([O-])c1cc(Cl)c(N=C2NCCN2)c(Cl)c1` it was 2.1; in that of `COc1cc(-n2[nH]c(C)cc2=O)ncn1`, 0.99; in that of `CC1=Nc2c(C)cccc2S(=O)(=O)N1`, 0.52. `CCc1cnc2cccc(C)n2c1=O` showed a logP of 1.79.

In turn, `FC(F)(F)c1nc2c(Cl)ccc(Cl)c2[nH]1` had a logP of 2.87. In the case of `Nc1cnccn1` it was -0.07. As for `O=C(NO)Nc1ccc(Cl)cc1`, the lipophilicity (logP) turned out to be 1.39. The value for `CN(C)/N=N/c1ccccc1C(=O)NC#N` was 0.8; that for `CN(C)N=Nc1cccc(C(=O)O)c1` was 2.03.

As for `CCC(C)On1c(=O)[nH]c(C)c(Br)c1=O` (centres undefined), the logP is 1.11.

`CC(=O)Nc1cccc(OC(=O)CNC(=O)c2ccccc2)c1` registered a logP of 1.7. Consider `CCOP(=S)(OCC)Oc1ccc(S(C)(=O)=O)cc1`, for which the lipophilicity (logP) was determined as 2.56.

On to `CNC(=O)Oc1cccc([N+](=O)[O-])c1`, for which the logP is 1.39. In the case of `[N-]=[N+]=CC(=O)NCC(=O)NCCO` it was -1.35; in that of `CCN(CC)CCNC(=O)c1cc(Cl)cc(Cl)c1`, 3.77; in that of `COc1ccc(N=NN(C)C(C)=O)cc1`, 2.61. The value for `O=NN1CCCCCCC1` was 1.48; that for `COc1ccc(Cc2cnc(N)nc2N)cc1OC` was 0.97; that for `CCNP(=O)(OC)Oc1cc(Cl)c(Cl)cc1Cl` (centres undefined) was 3.18. The compound `CC(=O)N(CCCl)c1ccc(CC(=O)O)cc1` returned a logP of 1.2. In the case of `CCCC(=O)Nc1ccc(C)cc1O`, the lipophilicity (logP) was found to be 2.26. In the case of `NNC(=O)c1ccccc1I` it was 0.47; in that of `CC1NC(=Nc2ncc([N+](=O)[O-])s2)OC1(C)C` (centres undefined), 1.88. In the case of `Nc1cc([N+](=O)[O-])cc(Cl)c1O` it was 1.53.

Turning to `CSC(C)=NOC(=O)N(C)SN(C)C(=O)C(C)C`, the lipophilicity (logP) is 2.2. The value for `CCOC(=O)C(C#N)=NNc1cc(Cl)cc(Cl)c1` was 3.82.

As for `Cc1nnc(N)o1`, the logP was -0.92.

On to `Brc1ccc(N=C2NCCN2)cc1`, for which the lipophilicity (logP) turned out to be 1.75.

As to `Cc1nnc(SCc2ccccc2)[nH]1`, the logP stood at 1.68. In the case of `NC(=O)c1[nH]cnc1/N=N/N(CCO)CCO`, the log partition coefficient (logP) was -1.09. In turn, `CC(C)C1OC(=O)c2ccccc21` (centres undefined) came in with a log partition coefficient (logP) of 2.1. The value for `CCc1ccc2c(c1)N=C(C)NS2(=O)=O` was 1.25. In the case of `CCN(CC)/N=N/c1nc[nH]c1C(N)=O` it was 0.78; in that of `CCCOP(N)(=O)SCCC` (centres undefined), 1.23; in that of `O=C1CCC(=O)N1c1ccc(F)cc1`, 0.29.

Regarding `CCOc1cc(Cc2cnc(N)nc2N)cc(OCC)c1C(C)=O`, the logP came to 2.04. `O=C1CN=C(c2ccccc2Br)c2cc(Cl)ccc2N1` showed a lipophilicity (logP) of 3.17.

For the compound `Clc1ccccc1NC1=NCCN1`, the logP was 1.36. The value for `N#Cc1ccc(NS(=O)(=O)c2ccc(N)cc2)cc1` was 1.83. The value for `CN1CCN(N=O)CC1` was 0.2; that for `CCSCC1=Nc2cc(Cl)ccc2S(=O)(=O)N1` was 2.26; that for `Cc1cc(C)c(NC2=NCCN2)c(C)c1` was 2.32.

The compound `CN(C)N=Nc1ccc(C#N)cc1` displayed a logP of 2.39. This logP and that of the compound before are within 0.2 log units of each other. Compound `COc1ccc(C(N)=O)cc1N=NN(C)C` yielded a logP of 0.44. `CC1(C)N=C(N)N=C(N)N1c1ccc(C(F)(F)F)cc1` returned a log partition coefficient (logP) of 1.22.

For `CCN(CC)CCNC(=O)c1cc(S(C)(=O)=O)ccc1OC`, the logP was 0.9. `O=S(=O)(Nc1ccc(I)cc1)C(F)(F)F` registered a logP of 4.39. As to `NC(=O)Nc1ccc(Oc2ccc(Br)cc2)cc1`, the log partition coefficient (logP) was 3.7. In turn, `FC(F)(F)CCc1ccccc1` displayed a logP of 3.31. The value for `Oc1nc2ccccc2nc1O` was 0.2; that for `O=S1(=O)NC(C2CC=CCC2)=Nc2ccccc21` (centres undefined) was 2.05.

Consider `CCN(CC)C(=O)NN`, for which the lipophilicity (logP) was -0.62.

In turn, `CCCCN(CCCC)CCS(=O)(=O)c1cc(OC)c(OC)c(OC)c1` registered a log partition coefficient (logP) of 3.55. The value for `CCc1cc(=O)n2c(C)cccc2n1` was 1.59; that for `CCCC(C)C1(CC)C(=O)NC(=O)N(C)C1=O` (centres undefined) was 2.45; that for `COP(=O)(Oc1cc(Cl)c(Br)cc1Cl)c1ccccc1` (centres undefined) was 4.58. The value for `CCCCN(SN(C)C(=O)ON=C(C)SC)C(=O)c1ccccc1` was 3.4; that for `COC(=O)C(C#N)=NNc1ccc2c(c1)OC(F)(F)C(F)(F)O2` was 4.86.

The compound `CC1CNC(=Nc2ncc([N+](=O)[O-])s2)N1` (centres undefined) had a log partition coefficient (logP) of 1.82. Take `Clc1cc(Cl)c(Cl)c(-c2ccc(Cl)c(Cl)c2Cl)c1`: the logP was found to be 7.39. Consider `COC(=O)C(C#N)=NNc1ccc(Cl)cc1C`, for which the logP was determined as 4.3. `CN(C)Cc1cccs1` gave a logP of 1.67.

`CS(=O)(=O)c1cccs1` returned a lipophilicity (logP) of 0.38. The value for `NC(=O)N(CCCN(N=O)C(N)=O)N=O` was -0.3. The value for `CC(C)CNCC(=O)NC(=O)C=[N+]=[N-]` was 0.37; that for `CNC(=O)Oc1cccc(I)c1` was 2.52. The value for `CN1C(=O)C(=Cc2ccc([N+](=O)[O-])o2)SC1=S` was 1.06. In the case of `CON(C)C(=O)Nc1cccc(C(C)(C)C)c1`, the logP was determined as 3.21. The value for `CCOC(=O)CN(C(=O)CCl)c1ccccc1CC` was 2.57; that for `CC(C)C(NC(=O)C(Cc1ccccc1)NC(=O)OCc1ccccc1)C(=O)O` (stereo not drawn) (Cbz-Phe-Val-OH; configuration not given here) was 2.88. In the case of `CC(=O)C(C#N)=NNc1cccc(Cl)c1` it was 3.9; in that of `CCc1cccc(OC2OC(CO)C(O)C(O)C2O)c1` (centres undefined), 0.31. In the case of `COc1cc(Cc2cnc(N)nc2N)cc(OC)c1C(=O)N(C)C` it was -0.21. `Brc1n[nH]c(Br)n1` showed a log partition coefficient (logP) of 2.24. In the case of `COc1ccc(Cc2cnc(N)nc2N)cc1N` it was 0.76; in that of `COP(=O)(OC)Oc1ccc([N+](=O)[O-])c(C)c1`, 1.69; in that of `CCOC(=O)C(C#N)=NNc1ccc(Cl)c(C(F)(F)F)c1`, 4.86. For `Clc1ccc(C2NCCS2)cc1` (centres undefined), the lipophilicity (logP) came to 2.1. In the case of `COc1cc(Cc2cnc(N)nc2N)ccc1Nc1ccccc1` it was 3.42. In the case of `CN(C=O)c1ccc(S(=O)(=O)N(C)C)cc1` it was 0.4.
